# Patent US12428423B2, “1H-imidazo[4,5-h]quinazoline compound as protein kinase inhibitor” (SHENGKE PHARMACEUTICALS (JIANGSU) LTD., priority 2017, dated 2025)
# Structures can show the parent of a compound that is named as a salt.
# How the values were obtained:
# [1] = molecular target: CDK4/cyclin D1 (Homo sapiens (Human), UniProt P11802); experiment: Biochemical kinase inhibitory assay, CDK4/cyclin D1; conditions: recombinant CDK4/cyclin D1; in the presence of 10 μM ATP
# Method: Potency determination in the biochemical kinase inhibitory assay. Kinase activity assay and IC50 determination. […] The kinase reaction was initiated by the addition of 1 μg (1.5 μM) of recombinant retinoblastoma protein, 5 μM ATP and 10μ Ci γ-32P-ATP. The reaction was incubated at 30° C. for 20 minutes, and the reaction was stopped by the addition of 2× Laemmli sample buffer, heated at 95° C. for three minutes, and dissolved in 12% acrylamide SDS-PAGE for autoradiography. The corresponding phosphorylated substrate protein bands were quantified using a densitometer (Bio-Rad). […] The reaction took place in the presence of 10 μM ATP.
# [2] = molecular target: CDK6/cyclin D1 (Homo sapiens (Human), UniProt Q00534); experiment: Biochemical kinase inhibitory assay, CDK6/cyclin D1; conditions: in the presence of 10 μM ATP
# Method: Potency determination in the biochemical kinase inhibitory assay. Kinase activity assay and IC50 determination. […] The kinase reaction was initiated by the addition of 1 μg (1.5 μM) of recombinant retinoblastoma protein, 5 μM ATP and 10μ Ci γ-32P-ATP. The reaction was incubated at 30° C. for 20 minutes, and the reaction was stopped by the addition of 2× Laemmli sample buffer, heated at 95° C. for three minutes, and dissolved in 12% acrylamide SDS-PAGE for autoradiography. The corresponding phosphorylated substrate protein bands were quantified using a densitometer (Bio-Rad). […] The compounds disclosed herein were tested in a similar manner for their inhibitory activities against CDK6/cyclin D1, CDK2/cyclin A, CDK5/cyclin P25, CDK9/cyclin Ti, CDK7/cyclin H and CDK19/cyclin C. […] The reaction took place in the presence of 10 μM ATP.
# Sequence of CDK6/cyclin D1 (Q00534 whole entry): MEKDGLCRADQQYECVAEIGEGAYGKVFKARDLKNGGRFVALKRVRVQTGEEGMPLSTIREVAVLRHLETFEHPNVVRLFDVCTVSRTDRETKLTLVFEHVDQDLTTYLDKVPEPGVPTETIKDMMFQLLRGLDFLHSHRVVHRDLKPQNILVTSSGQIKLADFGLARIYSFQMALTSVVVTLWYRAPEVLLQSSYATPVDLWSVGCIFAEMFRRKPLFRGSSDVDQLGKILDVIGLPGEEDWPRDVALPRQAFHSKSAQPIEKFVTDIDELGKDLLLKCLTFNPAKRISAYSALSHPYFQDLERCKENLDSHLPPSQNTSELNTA
# Sequence of CDK6/cyclin D1 (P24385 whole entry partner): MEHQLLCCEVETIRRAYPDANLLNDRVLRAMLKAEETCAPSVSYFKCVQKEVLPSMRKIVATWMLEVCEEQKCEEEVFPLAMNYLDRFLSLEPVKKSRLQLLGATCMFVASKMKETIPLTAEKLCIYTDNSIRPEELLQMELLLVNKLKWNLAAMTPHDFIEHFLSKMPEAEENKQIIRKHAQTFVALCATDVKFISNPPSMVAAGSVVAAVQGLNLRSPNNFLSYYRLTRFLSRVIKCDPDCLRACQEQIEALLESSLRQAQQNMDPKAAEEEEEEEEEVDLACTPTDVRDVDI
# Sequence of CDK4/cyclin D1 (P11802 whole entry): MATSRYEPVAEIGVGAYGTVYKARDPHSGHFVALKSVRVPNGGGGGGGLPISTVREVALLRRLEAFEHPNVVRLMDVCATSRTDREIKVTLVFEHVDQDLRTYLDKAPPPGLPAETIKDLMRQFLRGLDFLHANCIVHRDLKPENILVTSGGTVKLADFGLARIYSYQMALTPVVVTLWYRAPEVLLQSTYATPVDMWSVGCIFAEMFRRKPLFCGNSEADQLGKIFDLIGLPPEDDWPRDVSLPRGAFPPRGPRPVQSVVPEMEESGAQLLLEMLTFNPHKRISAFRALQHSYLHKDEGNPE
# Sequence of CDK4/cyclin D1 (P24385 whole entry partner): as the sequence (P24385 whole entry partner) above
smiles,measurement,setting,value
COc1ccc2cc(Nc3ncc4ccc5ncn(C(C)C)c5c4n3)ccc2n1 [Compound I-39],IC50,[1],50 to 100 nM
same,IC50,[2],50 to 100 nM
CC(C)n1cnc2ccc3cnc(Nc4ccc(N5CCN(CCO)CC5)cc4)nc3c21 [Compound I-34],IC50,[1],10 to 50 nM
same,IC50,[2],10 to 50 nM
Cc1cc(Nc2ncc3cc(C)c4ncn(C(C)C)c4c3n2)ncc1N1CCNCC1 [Compound I-73],IC50,[1],2 to 10 nM
same,IC50,[2],2 to 10 nM
Cc1cc2ncn(C(C)C)c2c2nc(Nc3ccc(N4CCNCC4)cn3)ncc12 [Compound I-62],IC50,[1],50 to 100 nM
same,IC50,[2],50 to 100 nM
c1cc(Nc2ncc3ccc4ncn(C5CCC5)c4c3n2)ncc1N1CCOCC1 [Compound I-55],IC50,[1],10 to 50 nM
same,IC50,[2],10 to 50 nM
CC(C)n1cnc2ccc3cnc(Nc4ccc(N5CCC6(CNC6)C5)cn4)nc3c21 [Compound I-29],IC50,[1],10 to 50 nM
same,IC50,[2],10 to 50 nM
Cc1cc2ncn(C(C)C)c2c2nc(Nc3ccc(N4CCOC(C)C4)cn3)ncc12 (stereo not drawn) [Compound I-66],IC50,[1],50 to 100 nM
same,IC50,[2],50 to 100 nM
CC(C)n1cnc2ccc3cnc(Nc4ccc(N5CCC(CCCO)CC5)cc4)nc3c21 [Compound I-38],IC50,[1],10 to 50 nM
same,IC50,[2],10 to 50 nM
CC(C)n1cnc2ccc3cnc(Nc4ccc(N5CCC6(CCC(=O)N6)CC5)cn4)nc3c21 [Compound I-33],IC50,[1],10 to 50 nM
same,IC50,[2],10 to 50 nM
CCn1cnc2ccc3cnc(Nc4ccc(N5CCOC(C)C5)cn4)nc3c21 (stereo not drawn) [Compound I-46],IC50,[1],10 to 50 nM
same,IC50,[2],10 to 50 nM
CCN1CCN(c2cnc(Nc3ncc4ccc5ncn(C(C)C)c5c4n3)cc2C)CC1 [Compound I-6],IC50,[1],2 to 10 nM
same,IC50,[2],2 to 10 nM
CC(C)n1cnc2ccc3cnc(Nc4ccc(N5CCCCC5)cn4)nc3c21 [Compound I-16],IC50,[1],10 to 50 nM
same,IC50,[2],10 to 50 nM
"CC(C)n1cnc2ccc3cnc(Nc4ccc(N5CCN(C)CC5)cn4)nc3c21 [Compound I-2, 1-isopropyl-N-(5-(4-methylpiperazin-1-yl)pyridin-2-yl)-1H-imidazo[4,5-h]quinazolin-8-amine]",IC50,[1],2 to 10 nM
same,IC50,[2],2 to 10 nM
Cc1cc2cnc(Nc3ccc(N4CCNCC4)cn3)nc2c2c1ncn2C(C)C [Compound I-72],IC50,[1],2 to 10 nM
same,IC50,[2],2 to 10 nM
CCn1cnc2ccc3cnc(Nc4ccc(N5CCOCC5)cn4)nc3c21 [Compound I-45],IC50,[1],10 to 50 nM
same,IC50,[2],10 to 50 nM
CC(C)n1cnc2ccc3cnc(Nc4cc(F)c(N5CCNCC5)cn4)nc3c21 [Compound I-13],IC50,[1],10 to 50 nM
same,IC50,[2],10 to 50 nM
CC(C)n1cnc2ccc3cnc(Nc4ccc(N5CCOCC5)cn4)nc3c21 [Compound I-23],IC50,[1],< 2 nM
same,IC50,[2],< 2 nM
Cc1cc(Nc2ncc3ccc4ncn(C(C)C)c4c3n2)ncc1N1CCNCC1 [Compound I-8],IC50,[1],< 2 nM
same,IC50,[2],< 2 nM
CCn1cnc2ccc3cnc(Nc4ccc(N5CCN(C)CC5)cn4)nc3c21 [Compound I-43],IC50,[1],10 to 50 nM
same,IC50,[2],10 to 50 nM
CC(C)n1cnc2ccc3cnc(Nc4ccc(N5CC6(CCNCC6)C5)cn4)nc3c21 [Compound I-32],IC50,[1],10 to 50 nM
same,IC50,[2],10 to 50 nM
CC(C)n1cnc2ccc3cnc(Nc4ccc(N5CCN(CCO)CC5)cn4)nc3c21 [Compound I-15],IC50,[1],10 to 50 nM
same,IC50,[2],10 to 50 nM
CC(C)n1cnc2ccc3cnc(Nc4ccc(N5CCC6(CC5)CNC6)cn4)nc3c21 [Compound I-31],IC50,[1],10 to 50 nM
same,IC50,[2],10 to 50 nM
CC(C)n1cnc2ccc3cnc(Nc4ccc(N5CCC(O)CC5)cn4)nc3c21 [Compound I-17],IC50,[1],10 to 50 nM
same,IC50,[2],10 to 50 nM
Cc1cc(Nc2ncc3ccc4ncn(C(C)C)c4c3n2)ncc1N1CCN(C)CC1 [Compound I-3],IC50,[1],2 to 10 nM
same,IC50,[2],2 to 10 nM
CC(C)n1cnc2ccc3cnc(Nc4ccc(N5C[C@@H](C)O[C@@H](C)C5)cn4)nc3c21 [Compound I-27],IC50,[1],2 to 10 nM
same,IC50,[2],2 to 10 nM
CCN1CCN(c2ccc(Nc3ncc4ccc5ncn(C(C)C)c5c4n3)nc2C)CC1 [Compound I-7],IC50,[1],2 to 10 nM
same,IC50,[2],2 to 10 nM
Cc1cc(Nc2ncc3ccc4ncn(C5CCCC5)c4c3n2)ncc1N1CCNCC1 [Compound I-58],IC50,[1],2 to 10 nM
same,IC50,[2],2 to 10 nM
Cc1nc(Nc2ncc3ccc4ncn(C(C)C)c4c3n2)ccc1N1CCOCC1 [Compound I-25],IC50,[1],2 to 10 nM
same,IC50,[2],2 to 10 nM
Cc1cc(Nc2ncc3ccc4ncn(C5CC5)c4c3n2)ncc1N1CCNCC1 [Compound I-48],IC50,[1],10 to 50 nM
same,IC50,[2],10 to 50 nM
CC(C)n1cnc2ccc3cnc(Nc4ccc(N5CCCNCC5)cn4)nc3c21 [Compound I-14],IC50,[1],10 to 50 nM
same,IC50,[2],10 to 50 nM
Cc1nc(Nc2ncc3ccc4ncn(C5CC5)c4c3n2)ccc1N1CCOCC1 [Compound I-51],IC50,[1],10 to 50 nM
same,IC50,[2],10 to 50 nM
Cc1cc(Nc2ncc3cc(C)c4ncn(C(C)C)c4c3n2)ncc1N1CCOCC1 [Compound I-76],IC50,[1],10 to 50 nM
same,IC50,[2],10 to 50 nM
Cc1nc(Nc2ncc3ccc4ncn(C5CCC5)c4c3n2)ccc1N1CCNCC1 [Compound I-54],IC50,[1],10 to 50 nM
same,IC50,[2],10 to 50 nM
Cc1cc(Nc2ncc3ccc4ncn(C5CC5)c4c3n2)ncc1N1CCOCC1 [Compound I-50],IC50,[1],10 to 50 nM
same,IC50,[2],10 to 50 nM
"CC(C)n1cnc2ccc3cnc(Nc4ccc(N5CCNCC5)cn4)nc3c21 [Compound I-1, 1-Isopropyl-N-(5-(piperazin-1-yl)pyridin-2-yl)-1H-imidazo[4,5-h]quinazolin-8-amine hydrochloride]",IC50,[1],< 2 nM
same,IC50,[2],< 2 nM
Cc1cc(Nc2ncc3ccc4ncn(C5CCCC5)c4c3n2)ncc1N1CCOCC1 [Compound I-61],IC50,[1],2 to 10 nM
same,IC50,[2],2 to 10 nM
Cc1cc(Nc2ncc3ccc4ncn(C5CCC5)c4c3n2)ncc1N1CCNCC1 [Compound I-53],IC50,[1],10 to 50 nM
same,IC50,[2],10 to 50 nM
CC1CN(c2ccc(Nc3ncc4ccc5ncn(C(C)C)c5c4n3)nc2)CCO1 (stereo not drawn) [Compound I-26],IC50,[1],2 to 10 nM
same,IC50,[2],2 to 10 nM
Cc1nc(Nc2ncc3cc(C)c4ncn(C(C)C)c4c3n2)ccc1N1CCNCC1 [Compound I-74],IC50,[1],2 to 10 nM
same,IC50,[2],2 to 10 nM
Cc1nc(Nc2ncc3ccc4ncn(C5CCCC5)c4c3n2)ccc1N1CCNCC1 [Compound I-59],IC50,[1],2 to 10 nM
same,IC50,[2],2 to 10 nM
CC(C)n1cnc2ccc3cnc(Nc4ccc(N5CCC(N(C)C)CC5)cn4)nc3c21 [Compound I-19],IC50,[1],10 to 50 nM
same,IC50,[2],10 to 50 nM
c1cc(Nc2ncc3ccc4ncn(C5CC5)c4c3n2)ncc1N1CCOCC1 [Compound I-49],IC50,[1],10 to 50 nM
same,IC50,[2],10 to 50 nM
Cc1nc(Nc2ncc3ccc4ncn(C(C)C)c4c3n2)ccc1N1CCNCC1 [Compound I-9],IC50,[1],< 2 nM
same,IC50,[2],< 2 nM
CC(C)n1cnc2ccc3cnc(Nc4ccc(N5CCC(N)CC5)cn4)nc3c21 [Compound I-21],IC50,[1],10 to 50 nM
same,IC50,[2],10 to 50 nM
Cc1cc(Nc2ncc3ccc4ncn(C(C)C)c4c3n2)ncc1N1CCOCC1 [Compound I-24],IC50,[1],2 to 10 nM
same,IC50,[2],2 to 10 nM
COc1cc(C(=O)NC2CCN(C)CC2)ccc1Nc1ncc2ccc3ncn(C(C)C)c3c2n1 [Compound I-40],IC50,[1],50 to 100 nM
same,IC50,[2],50 to 100 nM
Cc1cc(Nc2ncc3ccc4ncn(C5CCC5)c4c3n2)ncc1N1CCOCC1 [Compound I-56],IC50,[1],10 to 50 nM
same,IC50,[2],10 to 50 nM
Cc1cc(Nc2ncc3cc(Br)c4ncn(C(C)C)c4c3n2)ncc1N1CCNCC1 [Compound I-68],IC50,[1],2 to 10 nM
same,IC50,[2],2 to 10 nM
COc1cc(OCCN(C)C)ccc1Nc1ncc2ccc3ncn(C(C)C)c3c2n1 [Compound I-36],IC50,[1],50 to 100 nM
same,IC50,[2],50 to 100 nM
CCn1cnc2ccc3cnc(Nc4ccc(N5C[C@@H](C)O[C@@H](C)C5)cn4)nc3c21 [Compound I-44],IC50,[1],10 to 50 nM
same,IC50,[2],10 to 50 nM
Cc1nc(Nc2ncc3c(C)cc4ncn(C(C)C)c4c3n2)ccc1N1CCNCC1 [Compound I-64],IC50,[1],50 to 100 nM
same,IC50,[2],50 to 100 nM
c1cc(Nc2ncc3ccc4ncn(C5CCC5)c4c3n2)ncc1N1CCNCC1 [Compound I-52],IC50,[1],10 to 50 nM
same,IC50,[2],10 to 50 nM
CC(C)n1cnc2ccc3cnc(Nc4ccc(N5CCN[C@@H](C)C5)cn4)nc3c21 [Compound I-10],IC50,[1],2 to 10 nM
same,IC50,[2],2 to 10 nM
CCn1cnc2ccc3cnc(Nc4ccc(N5CCNCC5)cn4)nc3c21 [Compound I-42],IC50,[1],10 to 50 nM
same,IC50,[2],10 to 50 nM
CC(C)n1cnc2c(Br)cc3cnc(Nc4ccc(N5CCOCC5)cn4)nc3c21 [Compound I-70],IC50,[1],2 to 10 nM
same,IC50,[2],2 to 10 nM
CC(C)n1cnc2c(Br)cc3cnc(Nc4ccc(N5CCNCC5)cn4)nc3c21 [Compound I-67],IC50,[1],2 to 10 nM
same,IC50,[2],2 to 10 nM
c1cc(Nc2ncc3ccc4ncn(C5CCCC5)c4c3n2)ncc1N1CCNCC1 [Compound I-57],IC50,[1],< 2 nM
same,IC50,[2],< 2 nM
Cc1cc(Nc2ncc3c(C)cc4ncn(C(C)C)c4c3n2)ncc1N1CCNCC1 [Compound I-63],IC50,[1],50 to 100 nM
same,IC50,[2],50 to 100 nM
CCN1CCN(c2ccc(Nc3ncc4ccc5ncn(C(C)C)c5c4n3)nc2)CC1 [Compound I-5],IC50,[1],< 2 nM
same,IC50,[2],< 2 nM
CC(C)n1cnc2ccc3cnc(Nc4ccc(N5C[C@@H](C)N[C@@H](C)C5)cn4)nc3c21 [Compound I-12],IC50,[1],2 to 10 nM
same,IC50,[2],2 to 10 nM
